The values that follow come from US10280159B2 (AbbVie Deutschland GmbH & Co. KG, priority 2015, dated 2019).

As a reminder, the EC50 is the concentration that produces a half-maximal response.

What all share (assay type): cell-based
One experiment addresses T1, human S1PR3 (Homo sapiens, UniProt Q99500).
T1 construct: host or cells: CHO-K1
As to the kind of experiment: Intracellular Ca2+ release (FLIPR) agonist potency, S1P3. The following applies: recombinant CHO-K1 cells expressing human S1PR3, aequorin, Gq/i5; Calcium 5 FLIPR; read-out: S1P3 EC50. On the procedure:
Agonistic activity was measured using the method described below.
Intracellular Ca^2+ Release
Agonist potency and intrinsic activity was assessed by measurement of intracellular Ca^2+ release. Recombinant CHO-K1 cells (Euroscreen, Brussels, Belgium) expressing human S1PR5, S1PR1, S1PR3 or S1PR4 receptors, aequorin, and GTP binding protein Gq/i5 were cultured using a medium containing nutrient mixture F-12 Ham (Sigma-Aldrich) with 10% FBS, and 100 μg/mL gentamicin and equilibrated at 5% CO2.
Phospho-fingolimod was used as positive control. Antagonists were pre-incubated for 10 min with cells before addition of the agonist (phospho-fingolimod at EC80). Measurements were performed using a fluorometric imaging plate reader FLIPR®tetra (Molecular Devices). Agonist at the human S1P receptors were characterized by deducing EC50 (potency) values from a nonlinear fit to the measured fluorescence raw data after normalization to the reference agonist (phospho-fingolimod) curve.

Another experiment deals with T2, human S1PR1 (Homo sapiens, UniProt P21453).
T2 construct: host or cells: CHO-K1
T2 sequence (P21453 whole entry): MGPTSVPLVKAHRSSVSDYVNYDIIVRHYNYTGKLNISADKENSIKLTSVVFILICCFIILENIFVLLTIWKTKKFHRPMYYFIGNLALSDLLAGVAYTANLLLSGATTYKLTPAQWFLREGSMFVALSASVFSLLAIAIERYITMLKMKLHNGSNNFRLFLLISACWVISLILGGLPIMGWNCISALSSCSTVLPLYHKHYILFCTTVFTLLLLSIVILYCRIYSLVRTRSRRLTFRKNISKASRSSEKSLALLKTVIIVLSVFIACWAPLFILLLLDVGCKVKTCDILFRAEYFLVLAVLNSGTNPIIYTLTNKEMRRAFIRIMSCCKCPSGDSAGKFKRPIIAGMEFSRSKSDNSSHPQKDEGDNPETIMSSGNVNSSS
As to the kind of experiment: Intracellular Ca2+ release (FLIPR) agonist potency, S1P1. To be noted: recombinant CHO-K1 cells expressing human S1PR1, aequorin, Gq/i5; Calcium 5 FLIPR; read-out: S1P1 EC50. The procedure, abridged:
(§1)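 Recombinant CHO-K1 cells carrying the human receptor together with aequorin and the chimeric G protein Gq/i5 are exposed to test agonist, and Ca2+ mobilization is recorded by fluorometric imaging plate reader. Potency is derived from curve fitting relative to phospho-fingolimod.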

Another experiment deals with T3, human S1PR5 (Homo sapiens, UniProt Q9H228).
T3 construct: host or cells: CHO-K1
T3 sequence (Q9H228 whole entry): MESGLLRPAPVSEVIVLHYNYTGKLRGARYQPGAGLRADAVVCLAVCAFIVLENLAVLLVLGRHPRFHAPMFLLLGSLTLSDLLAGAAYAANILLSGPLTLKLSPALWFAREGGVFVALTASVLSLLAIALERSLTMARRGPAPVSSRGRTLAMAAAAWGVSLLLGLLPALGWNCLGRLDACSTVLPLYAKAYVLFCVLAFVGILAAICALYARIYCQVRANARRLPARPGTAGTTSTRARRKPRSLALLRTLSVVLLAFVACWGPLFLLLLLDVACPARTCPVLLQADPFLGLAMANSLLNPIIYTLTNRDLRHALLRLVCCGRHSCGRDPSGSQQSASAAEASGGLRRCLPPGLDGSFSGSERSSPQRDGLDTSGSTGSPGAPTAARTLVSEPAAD
As to the kind of experiment: Intracellular Ca2+ release (FLIPR) agonist potency, S1P5. The following applies: recombinant CHO-K1 cells expressing human S1PR5, aequorin, Gq/i5; Calcium 5 FLIPR; read-out: S1P5 EC50 range. The procedure, abridged: as §1

For a further experiment, the target named is T4, human S1PR4 (Homo sapiens, UniProt O95977).
T4 construct: host or cells: CHO-K1
T4 sequence (O95977 1-384): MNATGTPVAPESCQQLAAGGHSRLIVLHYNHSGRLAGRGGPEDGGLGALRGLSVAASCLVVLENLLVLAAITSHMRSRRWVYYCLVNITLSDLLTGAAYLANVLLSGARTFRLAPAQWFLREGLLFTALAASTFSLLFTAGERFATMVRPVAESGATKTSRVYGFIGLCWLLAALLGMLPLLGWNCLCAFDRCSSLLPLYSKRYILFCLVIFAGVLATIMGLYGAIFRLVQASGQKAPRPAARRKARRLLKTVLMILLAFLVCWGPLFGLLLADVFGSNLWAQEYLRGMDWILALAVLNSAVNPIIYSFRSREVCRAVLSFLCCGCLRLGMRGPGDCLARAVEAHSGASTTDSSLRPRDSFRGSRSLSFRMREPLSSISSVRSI
The experiment can be described thus: Intracellular Ca2+ release (FLIPR) agonist potency, S1P4. To be noted: recombinant CHO-K1 cells expressing human S1PR4, aequorin, Gq/i5; Calcium 5 FLIPR; read-out: S1P4 EC50. The procedure, abridged: as §1

T1 sequence (Q99500 whole entry): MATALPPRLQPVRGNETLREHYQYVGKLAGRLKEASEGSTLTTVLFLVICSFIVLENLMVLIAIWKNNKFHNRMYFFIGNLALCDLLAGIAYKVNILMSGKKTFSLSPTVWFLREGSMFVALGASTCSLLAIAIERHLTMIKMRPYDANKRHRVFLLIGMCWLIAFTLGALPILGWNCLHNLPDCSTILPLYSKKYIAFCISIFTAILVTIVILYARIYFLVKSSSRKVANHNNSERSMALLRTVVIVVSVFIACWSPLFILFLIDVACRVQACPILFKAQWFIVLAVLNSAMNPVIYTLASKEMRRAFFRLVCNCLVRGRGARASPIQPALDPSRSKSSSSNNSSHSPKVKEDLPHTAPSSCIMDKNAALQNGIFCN

`O=C(O)C1CN(C2COc3cc(OCc4c(Cl)cccc4Cl)ccc3C2)C1` (stereo not shown) [Compound 1, 1-(7-((2,6-dichlorobenzyl)oxy)chroman-3-yl)azetidine-3-carboxylic acid]: the concentration giving a half-maximal response (EC50) was above 1000 nM on human S1PR3, above 1000 nM at human S1PR1, below 10 nM at human S1PR5 and above 1000 nM at human S1PR4.
On to `CCc1cccc(Cl)c1COc1ccc2c(c1)CCC(NC1(C(=O)O)CC1)C2` (stereo not shown) [Compound 5, 1-((6-((2-chloro-6-ethylbenzyl)oxy)-1,2,3,4-tetrahydronaphthalen-2-yl)amino)cyclopropanecarboxylic acid], for which the EC50 on human S1PR3 was above 1000 nM; on human S1PR1 it was above 1000 nM; at human S1PR5 it was below 10 nM; at human S1PR4 it was below 1000 nM.
With `O=C(O)CCNC1CCc2cc(OCc3ccccc3Cl)ccc2C1` (stereo not shown) [Compound 8, 3-((6-((2-chlorobenzyl)oxy)-1,2,3,4-tetrahydronaphthalen-2-yl)amino)propanoic acid], the EC50 on human S1PR3 was above 1000 nM; at human S1PR1 it was above 1000 nM; on human S1PR5, below 10 nM; at human S1PR4, below 1000 nM.
Turning to `O=C(O)CCNC1CCc2cc(C#Cc3c(Cl)cccc3Cl)ccc2C1` (stereo not shown) [Compound 12, 3-((6-((2,6-dichlorophenyl)ethynyl)-1,2,3,4-tetrahydronaphthalen-2-yl)amino)propanoic acid], the EC50 at human S1PR3 was above 1000 nM; on human S1PR1 it was above 1000 nM; at human S1PR5 it was below 10 nM; at human S1PR4, below 1000 nM.
Take `CN(CCC(=O)O)C1CCc2cc(C#Cc3c(Cl)cccc3Cl)ccc2C1` (stereo not shown) [Compound 13, 3-((6-((2,6-dichlorophenyl)ethynyl)-1,2,3,4-tetrahydronaphthalen-2-yl)(methyl)amino)propanoic acid]: the EC50 is above 1000 nM on human S1PR3, above 1000 nM on human S1PR1, below 10 nM at human S1PR5 and below 1000 nM at human S1PR4.
`O=C(O)CCNC1CCc2cc(C#Cc3cc(F)cc(F)c3)ccc2C1` (stereo not shown) [Compound 14, 3-((6-((3,5-difluorophenyl)ethynyl)-1,2,3,4-tetrahydronaphthalen-2-yl)amino)propanoic acid]: the EC50 at human S1PR3 was above 1000 nM; on human S1PR1, above 1000 nM; at human S1PR5, below 10 nM; on human S1PR4 it was below 1000 nM.
`CN(CCC(=O)O)C1CCc2cc(C#Cc3cc(F)cc(F)c3)ccc2C1` (stereo not shown) [Compound 15, 3-((6-((3,5-difluorophenyl)ethynyl)-1,2,3,4-tetrahydronaphthalen-2-yl)(methyl)amino)propanoic acid]: the EC50 on human S1PR3 was above 1000 nM; at human S1PR1 it was above 1000 nM; on human S1PR5 it was below 10 nM; at human S1PR4, below 1000 nM.
On to `CN(CCC(=O)O)C1CCc2cc(OCc3ccccc3Cl)ccc2C1` (stereo not shown) [Compound 16, 3-((6-((2-chlorobenzyl)oxy)-1,2,3,4-tetrahydronaphthalen-2-yl)(methyl)amino)propanoic acid], for which the EC50 on human S1PR3 is above 1000 nM; on human S1PR1, above 1000 nM; at human S1PR5, 100 to 1000 nM; on human S1PR4, below 1000 nM.
With `CCc1cccc(Cl)c1COc1ccc2c(c1)CCC(N(C)CCC(=O)O)C2` (stereo not shown) [Compound 17, 3-((6-((2-chloro-6-ethylbenzyl)oxy)-1,2,3,4-tetrahydronaphthalen-2-yl)(methyl)amino)propanoic acid], the EC50 is above 1000 nM on human S1PR3, below 1000 nM on human S1PR1, below 10 nM at human S1PR5 and below 1000 nM at human S1PR4.
Take `O=C(O)CCNC1CCc2cc(/C=C/c3c(Cl)cccc3Cl)ccc2C1` (stereo not shown) [Compound 18, (E)-3-((6-(2,6-dichlorostyryl)-1,2,3,4-tetrahydronaphthalen-2-yl)amino)-propanoic acid]: the EC50 is above 1000 nM at human S1PR3, below 1000 nM on human S1PR1, below 10 nM at human S1PR5 and below 1000 nM on human S1PR4.
With `O=C(O)CCNC1CCc2cc(/C=C/c3ccccc3)ccc2C1` (stereo not shown) [Compound 19, (E)-3-((6-styryl-1,2,3,4-tetrahydronaphthalen-2-yl)amino)propanoic acid], the EC50 was above 1000 nM at human S1PR3, above 1000 nM on human S1PR1, 10 to 100 nM at human S1PR5 and below 1000 nM at human S1PR4.
Take `O=C(O)CCNC1CCc2cc(/C=C/c3cccc(Cl)c3)ccc2C1` (stereo not shown) [Compound 20, (E)-3-((6-(3-chlorostyryl)-1,2,3,4-tetrahydronaphthalen-2-yl)amino)-propanoic acid]: the concentration giving a half-maximal response (EC50) is above 1000 nM on human S1PR3, above 1000 nM on human S1PR1, below 10 nM on human S1PR5 and below 1000 nM at human S1PR4.
In the case of `O=C(O)CCNC1CCc2cc(OCc3c(Cl)cccc3C3CC3)ccc2C1` (stereo not shown) [Compound 21, 3-((6-((2-chloro-6-cyclopropylbenzyl)oxy)-1,2,3,4-tetrahydronaphthalen-2-yl)amino)propanoic acid], the EC50 at human S1PR3 is above 1000 nM; at human S1PR1 it was above 1000 nM; on human S1PR5, 1000 to 10000 nM; at human S1PR4, above 1000 nM.
On to `C=C(CN(Cc1c(Cl)cccc1CC)C1CCc2cc(OCc3c(Cl)cccc3CC)ccc2C1)C(=O)OC` (stereo not shown) [Compound 22, Methyl 2-(((2-chloro-6-ethylbenzyl)(6-((2-chloro-6-ethylbenzyl)oxy)-1,2,3,4-tetrahydronaphthalen-2-yl)amino)methyl)acrylate], for which the EC50 at human S1PR3 is above 1000 nM; at human S1PR1, above 1000 nM; at human S1PR5, 1000 to 10000 nM; at human S1PR4, above 1000 nM.
With `CCc1cccc(Cl)c1COc1ccc2c(c1)OCC(N1CC(C(=O)O)C1)C2` (stereo not shown) [Compound 23, 1-(7-((2-chloro-6-ethylbenzyl)oxy)chroman-3-yl)azetidine-3-carboxylic acid], the concentration for a half-maximal effect (EC50) is above 1000 nM at human S1PR3, above 1000 nM on human S1PR1, below 10 nM on human S1PR5 and below 1000 nM at human S1PR4.
With `O=C(O)C1CN(C2COc3cc(OCc4cccc(Cl)c4)ccc3C2)C1` (stereo not shown) [Compound 24, 1-(7-((3-chlorobenzyl)oxy)chroman-3-yl)azetidine-3-carboxylic acid], the EC50 on human S1PR3 is above 1000 nM; on human S1PR1 it was above 1000 nM; at human S1PR5 it was 1000 to 10000 nM; on human S1PR4 it was above 1000 nM.
`O=C(O)C1CN(C2COc3cc(OCc4c(Cl)cccc4C4CC4)ccc3C2)C1` (stereo not shown) [Compound 25, 1-(7-((2-chloro-6-cyclopropylbenzyl)oxy)chroman-3-yl)azetidine-3-carboxylic acid]: the concentration for a half-maximal effect (EC50) at human S1PR3 is above 1000 nM; on human S1PR1, above 1000 nM; on human S1PR5, below 10 nM; on human S1PR4, below 1000 nM.
With `O=C(O)C1CN(C2COc3cc(C#Cc4cc(F)cc(F)c4)ccc3C2)C1` (stereo not shown) [Compound 27, 1-(7-((3,5-difluorophenyl)ethynyl)chroman-3-yl)azetidine-3-carboxylic acid], the 50% effective concentration (EC50) at human S1PR3 is above 1000 nM; on human S1PR1, above 1000 nM; on human S1PR5, below 10 nM; on human S1PR4, below 1000 nM.
As to `O=C(O)CNC1CCc2cc(C#Cc3cc(F)cc(F)c3)ccc2C1` (stereo not shown) [Compound 28, 2-((6-((3,5-difluorophenyl)ethynyl)-1,2,3,4-tetrahydronaphthalen-2-yl)amino)acetic acid], the EC50 on human S1PR3 is above 1000 nM; on human S1PR1, above 1000 nM; on human S1PR5 it was below 10 nM; on human S1PR4 it was below 1000 nM.
Consider `O=C(O)CNC1CCc2cc(C#Cc3c(Cl)cccc3Cl)ccc2C1` (stereo not shown) [Compound 29, 2-((6-((2,6-dichlorophenyl)ethynyl)-1,2,3,4-tetrahydronaphthalen-2-yl)amino)acetic acid], for which the EC50 at human S1PR3 is above 1000 nM; on human S1PR1, above 1000 nM; at human S1PR5, below 10 nM; on human S1PR4, below 1000 nM.
Consider `O=C(O)CNC1CCc2cc(C#CC3CCCCC3)ccc2C1` (stereo not shown) [Compound 30, 2-((6-(cyclohexylethynyl)-1,2,3,4-tetrahydronaphthalen-2-yl)amino)acetic acid], for which the EC50 at human S1PR3 is above 1000 nM; at human S1PR1, above 1000 nM; at human S1PR5, below 10 nM; on human S1PR4 it was below 1000 nM.
Take `O=C(O)C1CCN(C2CCc3cc(OCc4c(Cl)cccc4Cl)ccc3C2)CC1` (stereo not shown) [Compound 31, 1-(6-((2,6-dichlorobenzyl)oxy)-1,2,3,4-tetrahydronaphthalen-2-yl)piperidine-4-carboxylic acid]: the EC50 was above 1000 nM at human S1PR3, below 1000 nM on human S1PR1, below 10 nM on human S1PR5 and below 1000 nM on human S1PR4.
